Test results: PMC5663397, “A composite docking approach for the identification and characterization of ectosteric inhibitors of cathepsin K” (PLoS ONE, 2017)
Several values for one entry are separate records, joined by “and”; a condition that tells them apart may be missing. Equal entries are not always repeated. Entries after “also recorded” stand apart in the source; their conditions may differ. Where two headings read alike, the source gives them in different places.

Tests used:
[1] = molecular target: T1, MMP-1 (Homo sapiens, UniProt P03956); assay: Gelatin degradation assay with MMP-1; assay type: biochemical; settings: 50 μM inhibitor, 10 nM MMP-1
T1 sequence (P03956 100-469): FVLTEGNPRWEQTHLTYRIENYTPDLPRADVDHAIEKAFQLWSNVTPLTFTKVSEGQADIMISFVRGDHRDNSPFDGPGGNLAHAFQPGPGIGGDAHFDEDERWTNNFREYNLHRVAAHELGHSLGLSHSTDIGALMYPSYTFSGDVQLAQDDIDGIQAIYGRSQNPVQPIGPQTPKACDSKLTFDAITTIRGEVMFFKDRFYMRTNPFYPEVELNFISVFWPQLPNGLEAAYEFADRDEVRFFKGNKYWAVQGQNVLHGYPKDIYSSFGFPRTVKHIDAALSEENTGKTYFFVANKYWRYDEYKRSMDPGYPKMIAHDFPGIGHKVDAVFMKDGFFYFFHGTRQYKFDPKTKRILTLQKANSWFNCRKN
Experimental: Gelatin (0.6 mg/mL) degradation assays were performed in the same manner as the collagen degradation experiments with 10 nM enzyme and were incubated at 37°C for one hour at the appropriate pH values for the individual proteases (CatK, pH 5.5; MMP-1, pH 7.4; trypsin, pH 8.8).

[2] = molecular target: T1, MMP-1; assay: Collagen digestion with MMP-1; assay type: biochemical; settings: 50 μM inhibitor, 400 nM MMP-1
Experimental: (§1) Digestion with MMP-1 was performed in 50 mM Tris-HCl, pH 7.4, containing 200 mM NaCl and 5 mM CaCl2 at 28°C for 4 h. Reactions were stopped by adding 25 mM EDTA as previously described. Samples were analyzed using 10% SDS-PAGE gels and stained with Coomassie. The resulting bands of α-collagen chains were quantitatively assessed using ImageJ (Version 1.5) and IC50 graphs were plotted using GraphPad Prism (GraphPad Software, Version 5.0, La Jolla California USA).

[3] = tested on: human osteoclasts; assay: Human osteoclast bone resorption assay on bone slices; assay type: cell-based; settings: 1 μM inhibitor, 72 h, versus untreated
Experimental: (§2) Osteoclasts were generated from mononuclear cells isolated from human bone marrow tissue (Lonza, Walkersville, MD). The bone marrow cells were centrifuged at 400 g for 5 min and the pellet was re-suspended in 10 mL α-MEM (α-Minimal Essential Media) and layered on 10 ml Ficoll-Plaque media solution. After centrifugation at 500 g for 30 min, the white interface containing the monocytes was harvested and washed twice with α-MEM. Cells were cultured in α-MEM containing 10% FBS and 25 ng/mL M-CSF for 24 hours and then cultured in 25 ng/mL RANKL and 25 ng/mL M-CSF for 7 days. Differentiated osteoclasts (100,000 cells per slice) were then seeded on each bone slice (5.5 mm diameter and 0.4 mm thickness; self-made) in the presence or absence of inhibitors and incubated for 72 hours at 5% CO2 and 37°C with the DMSO concentration at 0.1%. The inhibitor concentration range tested varied between 50 nM to 3 μM.
(§3) To compare the effects of the compounds on cell survival, the metabolic activity of osteoclasts was determined using the CellTiter-Blue Viability Assay (Promega, Madison, WI, USA). Bone slices from each condition (inhibitor-treated and control groups) were fixed in 4% formaldehyde and subsequently stained for tartrate-resistant acid phosphatase (TRAcP) activity (Acid Phosphatase, Leukocyte (TRAP) Kit; Sigma-Aldrich). Aliquots from cell culture media were used to determine the CTx-I concentration (MyBiosource ELISA kit, San Diego, CA). CTx-I is a CatK-specific C-terminal cleavage product of triple helical type I collagen. The total number of osteoclasts per bone slice was determined after TRAcP staining. Cells with ≥2 nuclei were counted as osteoclasts. After 72 h, bone slices from each condition were incubated in filtered water for cell lysis and cells were removed using a cotton stick. Subsequently the resorption cavities were stained with toluidine blue and observed by light microscopy. The number of resorption events and eroded bone surface area were determined as previously described. All light microscopic analyses were performed using a Nikon Eclipse LV100 microscope and a Nikon Eclipse Ci microscope.

[4] = molecular target: T2, CatK (Homo sapiens, UniProt P43235); assay: Z-Phe-Arg-MCA cleavage assay with CatK; assay type: biochemical; settings: 100 μM inhibitor, 5 nM CatK, 5 μM substrate, pH 5.5
T2 construct: made in house; host or cells: Pichia pastoris
T2 sequence (P43235 115-329): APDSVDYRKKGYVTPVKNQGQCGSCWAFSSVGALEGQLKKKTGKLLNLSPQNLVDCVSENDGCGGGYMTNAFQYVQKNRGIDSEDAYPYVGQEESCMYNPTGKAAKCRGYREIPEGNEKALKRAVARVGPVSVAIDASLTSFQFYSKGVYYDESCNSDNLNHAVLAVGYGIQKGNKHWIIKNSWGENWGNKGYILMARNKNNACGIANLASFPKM
Experimental: The enzymatic activity of CatK was monitored by measuring the rate of release of the fluorogenic group, amino-methyl coumarin at an excitation wavelength of 380 nm and an emission wavelength of 450 nm using a Molecular Devices SpectraMax Gemini spectrofluorometer. Inhibitors were added prior to measurement of enzyme activity. The assays were performed at 25°C at a fixed enzyme concentrations (5 nM) and substrate concentration (5 μM) in 100 mM sodium acetate buffer, pH 5.5, containing 2.5 mM DTT and 2.5 mM EDTA. Z-Phe-Arg-MCA hydrolysis with trypsin was carried out in 50 mM Tris-HCl, pH 8.8 at 10 nM enzyme concentration.

[5] = molecular target: T2, CatK; assay: CatK collagenase assay (type I collagen degradation, SDS-PAGE); assay type: biochemical
Experimental: The collagenase inhibitory activities of all identified compounds were measured using a collagen degradation assay. Soluble bovine type I collagen (0.6 mg/mL) was incubated with 400 nM recombinant human CatK, in the presence or absence of 200 nM chondroitin 4-sulfate (C4-S) in 100 mM sodium acetate buffer, pH 5.5, containing 2.5 mM dithiothreitol (DTT) (Sigma-Aldrich Canada, Oakville, Ontario, Canada) and 2.5 mM ethylenediametetraacetate (EDTA) (Sigma-Aldrich). In the experiments involving detergent to minimize inhibitor aggregation, 0.001% or 0.005% Triton X-100 was added to the buffer with the inhibitor. The recombinant human CatK was expressed in Pichia pastoris and purified as previously described. Selected compounds identified by molecular docking were ordered from the National Cancer Institute through the Developmental Therapeutics Program (Rockville, MD). All compounds were dissolved in DMSO as a 20 or […] stock. […] After incubation at 28°C for 4 hours, 1 μM of E-64 was added to block the residual activity of CatK.
as §1

[6] = tested on: human osteoclasts; assay: Osteoclast survival: CellTiter-Blue metabolic activity and osteoclast count after TRAcP staining; assay type: cell-based; settings: compared with untreated cells
Experimental: as §2, §3

[7] = tested on: quinone oxidoreductase; design: method as in PMID 21859103; settings: cited from earlier work

## CN(C)CCCNc1ccc2ncn3c4ccccc4c(=O)c1c23 [compound 3, 5-(3-(dimethylamino)propylamino)-6H-imidazo[4,5,1-de]acridin-6-one]
[1]
  inhibitory activity for the gelatinase activity of MMP-1: no inhibitory activity; also recorded: did not show inhibition
[2]
  inhibitory activity towards the collagenase activity of MMP-1: no inhibitory activity; also recorded: did not show inhibition
[3]
  Number of trenches: significant reduction; also recorded: significantly reduced
  percentage of eroded surface area / total eroded surface: significant reduction; also recorded: significantly reduced
[4]
  inhibition at 100 µM: 5 ± 2.7%
[5]; 400 nM CatK, soluble bovine type I collagen 0.6 mg/mL, pH 5.5, 28°C, 4 h, read-out: Collagenase IC50
  IC50: < 20 µM and 4.9 µM and ~5 µM
[5]; Collagenase IC50 with 0.005% Triton X-100, in the presence of detergent, 0.005% Triton X-100
  IC50: 5.2 ± 1.5 µM
[5]; in the presence of detergent, 0.005% Triton X-100
  Collagenase IC50 with 0.005% Triton X-100: not significantly different
[6]; CellTiter-Blue
  Metabolic activity of osteoclasts: no significant differences
[6]; TRAcP staining
  number of osteoclasts: no significant differences
[7]
  activity in an inhibitor screen of a quinone oxidoreductase: active
